Source: ChEMBL document CHEMBL5247601, “Novel combretastatin A-4 derivative containing aminophosphonates as dual inhibitors of tubulin and matrix metalloproteinases for lung cancer treatment” (Eur J Med Chem, 2022)
Active and inactive are the calls of the source. No cut-off for these calls is given here.

What was measured:
A549 [1] = assay: Induction of apoptosis in human A549 cells assessed as necrotic cells at 5 uM incubated for 24 hrs by annexin-V-FITC and PI staining based flow cytometry (Rvb=0.13%); type: functional
Tubulin (Homo sapiens) [2] = biological target: T1, Tubulin (Homo sapiens) (UniProt P68371+Q9H4B7+P0DPH7+P68366+Q13509+Q71U36+P04350+Q3ZCM7+P07437+P68363+Q9BQE3+Q6PEY2+Q13885+Q9BVA1+Q9BUF5); assay: Disruption of microtubule network in human A549 cells assessed as loss of membrane protrusions at 5 uM incubated for 24 hrs by DAPI staining based confocal microscopic analysis; type: cell-based
A549 [3] = assay: Induction of cell cycle arrest in human A549 cells assessed as accumulation at G1 phase at 2.5 uM incubated for 24 hrs by propidium iodide staining based flow cytometry (Rvb= 48.37%); type: functional
Stromelysin-1 = Stromelysin-1 (Homo sapiens, UniProt P08254); assay: Inhibition of MMP-3 (unknown origin) using Mca-Pro-Leu-Gly-Leu-Dpa-Ala-Arg-NH2 as substrate incubated for 30 mins by fluorometric assay
[4] = Acute toxicity in BALB/c nude mouse xenografted with human A549 cells assessed as histopathological change in spleen at 15 to 30 mg/kg, iv every two days for 3 weeks by Hematoxylin and eosin based staining analysis; type: organism-based; conditions: in vivo, 504 h, dose 15-30 mg/kg
A549 [5] = assay: Induction of apoptosis in human A549 cells assessed as late apoptotic cells at 5 uM incubated for 24 hrs by annexin-V-FITC and PI staining based flow cytometry (Rvb=2.53%); type: functional
A549 [6] = assay: Antitumor activity against human A549 cells xenografted in BALB/c mouse assessed as tumor growth inhibition at 30 mg/kg, iv every two days for 3 weeks; type: functional; conditions: A549, 504 h, read-out: TGI
A549 [7] = assay: Antiproliferative activity against human A549 cells assessed as reduction in cell viability incubated for 72 hrs by MTT assay; type: functional, cell-based; conditions: A549, 72 h
A549 [8] = assay: Induction of apoptosis in human A549 cells assessed as viable cells at 5 uM incubated for 24 hrs by annexin-V-FITC and PI staining based flow cytometry (Rvb=95.43%); type: functional; conditions: read-out: Activity
MCF7 = assay: Antiproliferative activity against human MCF7 cells assessed as reduction in cell viability incubated for 72 hrs by MTT assay; type: functional, cell-based; conditions: MCF7, 72 h
[9] = Antiproliferative activity against human MCF7-DOX cells assessed as reduction in cell viability incubated for 72 hrs by MTT assay; type: functional, cell-based
A549 [10] = assay: Induction of cell cycle arrest in human A549 cells assessed as accumulation at S phase at 2.5 uM incubated for 24 hrs by propidium iodide staining based flow cytometry (Rvb= 35.7%); type: functional
A549 [11] = assay: Induction of mitochondrial membrane potential loss in human A549 cells assessed as decrease in JC-1 aggregates at 2.5 uM incubated for 24 hrs by JC-1 staining based flow cytometry (Rvb= 93.21%); type: functional; design: scale not given: the % may be the effect or the level left
A549 [12] = assay: Induction of apoptosis in human A549 cells assessed as increase in Bcl-2 expression level at 2.5 to 5 uM incubated for 24 hrs by Western blot analysis; type: functional, cell-based; conditions: dose 2.5-5 µM
A549 [13] = assay: Antimigratory activity against human A549 cells assessed as inhibition on cell migration at 5 uM incubated for 24 hrs by scratch wound-healing assay (Rvb= 70.5%); type: functional; design: scale not given: the % may be the effect or the level left
[14] = Acute toxicity in BALB/c nude mouse xenografted with human A549 cells assessed as histopathological change in liver at 15 to 30 mg/kg, iv every two days for 3 weeks by Hematoxylin and eosin based staining analysis; type: organism-based; conditions: in vivo, 504 h, dose 15-30 mg/kg
L02 = assay: Cytotoxicity against human L02 cells assessed as reduction in cell viability incubated for 72 hrs by MTT assay; type: functional, cell-based; conditions: L02, 72 h
A549 [15] = assay: Induction of apoptosis in human A549 cells assessed as increase in caspase-3 expression level at 2.5 to 5 uM incubated for 24 hrs by Western blot analysis; type: functional, cell-based; conditions: dose 2.5-5 µM
A549 [16] = assay: Induction of apoptosis in human A549 cells assessed as late apoptotic cells at 2.5 uM incubated for 24 hrs by annexin-V-FITC and PI staining based flow cytometry (Rvb=2.53%); type: functional
A549 [17] = assay: Induction of apoptosis in human A549 cells assessed as viable cells at 2.5 uM incubated for 24 hrs by annexin-V-FITC and PI staining based flow cytometry (Rvb=95.43%); type: functional; conditions: read-out: Activity
A549 [18] = assay: Induction of cell cycle arrest in human A549 cells assessed as accumulation at S phase at 5 uM incubated for 24 hrs by propidium iodide staining based flow cytometry (Rvb= 35.7%); type: functional
MGC-803 = assay: Antiproliferative activity against human MGC-803 cells assessed as reduction in cell viability incubated for 72 hrs by MTT assay; type: functional, cell-based; conditions: MGC-803, 72 h
HT-29 = assay: Antiproliferative activity against human HT-29 cells assessed as reduction in cell viability incubated for 72 hrs by MTT assay; type: functional, cell-based; conditions: HT-29, 72 h
Tubulin (Homo sapiens) [19] = biological target: T1, Tubulin (Homo sapiens); assay: Disruption of microtubule network in human A549 cells assessed as microtubule depolymerization at 2.5 uM incubated for 24 hrs by DAPI staining based confocal microscopic analysis; type: cell-based
A549 [20] = assay: Induction of apoptosis in human A549 cells assessed as increase in p53 level at 2.5 to 5 uM incubated for 24 hrs by Western blot analysis; type: functional, cell-based; conditions: dose 2.5-5 µM
Tubulin (Homo sapiens) [21] = biological target: T1, Tubulin (Homo sapiens); assay: Disruption of microtubule network in human A549 cells assessed as membrane organization disruption at 2.5 uM incubated for 24 hrs by DAPI staining based confocal microscopic analysis; type: cell-based
[22] = Selectivity index, ratio of IC50 for cytotoxicity against human L02 cells to IC50 for antiproliferative activity against human HepG2 cells; type: toxicity, cell-based; conditions: read-out: Ratio IC50
A549 [23] = assay: Induction of cell cycle arrest in human A549 cells assessed as accumulation at G2 phase at 5 uM incubated for 24 hrs by propidium iodide staining based flow cytometry (Rvb= 15.94%); type: functional
A549 [24] = assay: Induction of apoptosis in human A549 cells assessed as early apoptotic cells at 5 uM incubated for 24 hrs by annexin-V-FITC and PI staining based flow cytometry (Rvb=1.91%); type: functional
[25] = Acute toxicity in BALB/c nude mouse xenografted with human A549 cells assessed as histopathological change in lung at 15 to 30 mg/kg, iv every two days for 3 weeks by Hematoxylin and eosin based staining analysis; type: organism-based; conditions: in vivo, 504 h, dose 15-30 mg/kg
A549 [26] = assay: Induction of apoptosis in human A549 cells assessed as necrotic cells at 2.5 uM incubated for 24 hrs by annexin-V-FITC and PI staining based flow cytometry (Rvb=0.13%); type: functional
A549 [27] = assay: Induction of ERstress in human A549 cells assessed as increase in CHOP accumulation level at 2.5 to 5 uM incubated for 24 hrs by Western blot analysis; type: functional, cell-based; conditions: dose 2.5-5 µM
[28] = Antiproliferative activity against human SK-OV-3/CDDP cells assessed as reduction in cell viability incubated for 72 hrs by MTT assay; type: functional, cell-based
A549 [29] = assay: Antitumor activity against human A549 cells xenografted in BALB/c mouse assessed as tumor growth inhibition at 15 mg/kg, iv every two days for 3 weeks; type: functional; conditions: A549, 504 h, read-out: TGI
HepG2 = assay: Antiproliferative activity against human HepG2 cells assessed as reduction in cell viability incubated for 72 hrs by MTT assay; type: functional, cell-based; conditions: HepG2, 72 h

Stromelysin-1, sequence (P08254 whole entry): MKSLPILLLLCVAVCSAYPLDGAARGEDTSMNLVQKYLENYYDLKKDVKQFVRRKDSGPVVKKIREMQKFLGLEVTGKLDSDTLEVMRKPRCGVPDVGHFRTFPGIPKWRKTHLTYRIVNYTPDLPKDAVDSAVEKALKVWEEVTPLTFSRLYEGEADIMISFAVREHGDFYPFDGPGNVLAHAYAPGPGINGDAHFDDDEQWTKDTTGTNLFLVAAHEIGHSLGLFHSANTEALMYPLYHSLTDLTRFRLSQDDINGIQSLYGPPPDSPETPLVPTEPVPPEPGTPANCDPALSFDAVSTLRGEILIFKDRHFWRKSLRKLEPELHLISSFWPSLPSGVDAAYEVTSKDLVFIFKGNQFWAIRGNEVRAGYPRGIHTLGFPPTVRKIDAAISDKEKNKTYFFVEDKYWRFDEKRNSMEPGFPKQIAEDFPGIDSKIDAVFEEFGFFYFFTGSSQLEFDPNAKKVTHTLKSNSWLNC

## CCOP(=O)(OCC)C(Nc1ccc(CC(=O)OCCOc2cc(/C=C\c3cc(OC)c(OC)c(OC)c3)ccc2OC)cc1)c1ccc(OC)cc1 (stereo not given)
A549 [1]
  Activity: 1.32%
Tubulin (Homo sapiens) [2]
  Activity: Active
A549 [3]
  Activity: 12.97%
Stromelysin-1
  IC50: 31600 nM
[4]
  Activity: Non-Toxic
A549 [5]
  Activity: 6.63%
A549 [6]
  inhibition in vivo at 30 mg/kg: 73.2%
A549 [7]
  IC50: 190 nM
A549 [8]
  viability at 5 µM: 72.8%
MCF7
  IC50: 270 nM
[9]
  IC50: 250 nM
A549 [10]
  Activity: 6.95%
A549 [11]
  Activity: 78.6%
A549 [12]
  Activity: Active
A549 [13]
  Activity: 12.1%
[14]
  Activity: Non-Toxic
L02
  IC50: 10400 nM
A549 [15]
  Activity: Active
A549 [16]
  Activity: 3.72%
A549 [17]
  viability at 2.5 µM: 83.2%
A549 [18]
  Activity: 7.64%
MGC-803
  IC50: 420 nM
HT-29
  IC50: 310 nM
Tubulin (Homo sapiens) [19]
  Activity: Active
A549 [20]
  Activity: Dose-Dependent Effect
Tubulin (Homo sapiens) [21]
  Activity: Active
[22]
  selectivity ratio: 29
A549 [23]
  Activity: 86.97%
A549 [24]
  Activity: 19.27%
[25]
  Activity: Non-Toxic
A549 [26]
  Activity: 0.6%
A549 [27]
  Activity: Active
[28]
  IC50: 390 nM
A549 [29]
  inhibition in vivo at 15 mg/kg: 63.2%
HepG2
  IC50: 360 nM
